Columns and labels:
Assay type in all cases: cell-based, human
[1] = test system: glutamine metabolism in T47D cells; experiment: Intracellular metabolite levels, T47D; details: 2.5 or 5 μM, 4 hours
Method: (§1) Blocking glutamine metabolism can inhibit the growth and proliferation of glutamine-dependent cells, mainly because of blocking the production and utilization of glutamine metabolites. The effects of different concentrations of physapubescin K on the intracellular glutamine and its downstream metabolites were examined. […] And the same effect could also be seen in Hcc827-ER cells (Figure 7C).
(§2) NADPH/NADP^+ ratio was determined by using NADP^+/NADPH Quantification Colorimetric Kit (BioVision, #K347-100). The abundance of intracellular glutamine (KeyGen, Nanjing, China A124), glutamate (KeyGen, Nanjing, China A074), (BioVision, #K778), aspartate (BioVision, #K552), oxaloacetate (BioVision, #K659) and malate (BioVision, #K637) was determined by using quantification kits, according the manufacturer’s instruction. Briefly, 5 × 10^6 cells (10-cm dishes) were collected during log-phase growth by cell scraper, homogenized in 0.2 mL of provided buffers (on ice), and centrifuged at 4°C for 10 min at 13,000 g. Supernatants were deproteinized using 10 K Ultrafiltration tube (Millipore, USA), analyzed and compared to standard curves. The signals obtained were normalized to the protein concentration calculated upon processing a parallel 10-cm dish.

[2] = test system: glutamine metabolism in SW1990 cells; experiment: Intracellular metabolite levels and NADPH/NADP+, SW1990; details: SW1990, 2.5 or 5 μM, 4 hours
Method: as §1, §2

SW1990 cells = experiment: Flow cytometric analysis for apoptosis (Annexin V/PI); details: SW1990, 24 h
Method: SW1990 cells were cultured in six-well plates and treated with different concentrations of physapubescin K for 24 h. Then the cells were harvested, washed twice with ice-cold PBS, and mixed in 100 μL of 1× binding buffer (10 mM HEPES/ NaOH, pH 7.4, 140 mM NaCl, 2.5 mM CaCl2). After incubating with Annexin-V and PI staining liquid (Nanjing KeyGen Biotech. Inc.) for 15 min at room temperature, the cells were examined by flow cytometry (BD Biosciences, FACSCalibur).

CO[C@H]1O[C@@H]([C@@H](C)[C@H]2C[C@H](OC(C)=O)[C@H]3[C@@H]4C[C@H]5O[C@]56[C@@H](O)C=CC(=O)[C@]6(C)[C@H]4CC[C@@]32C)C[C@]2(C)O[C@]12C [physapubescin K]
effects on glutamine metabolism [1]: moderate effects | consumption of glutamine [2]: significantly reduce | production of glutamic acid and its downstream metabolites (oxaloacetic acid, aspartic acid, malic acid) [2]: decrease | proportion of NADPH/NADP+ [2]: significantly reduced | apoptosis (SW1990 cells): induce apoptosis
